Data on three substances can be found in US9676820B2, “Method for inhibiting proliferation of high LIX1L-expressing tumor cell, and tumor cell proliferation-inhibiting peptide” (National University Corporation Hamamatsu University School …, priority 2013, dated 2017).

In series [1] the test system is HL-60 strain. Briefly: Viable cell counts (Trypan blue staining), HL-60 strain. The format is cell-based. As to conditions: vs untreated. As to the method:
(§1) Specifically, cells plated such that the density thereof became 1×10^4 cells/3.5 cm well for one plate (6 wells/plate) for each cell strain were cultured for one night in a culture solution having the same composition as those of the culture solutions described in the reference examples. After culturing of 1 well out of the 6 wells was completed, Trypan blue staining was performed on the 1 well, and viable cell counts were counted. The remaining 5 wells were cultured after exchanging the culture solution with a liquid mixture of a Lipofectamine (registered trademark) reagent (12.5 μL/well) and a culture solution (2 mL/well) of which the shRNA concentration became 2.5 μg/well. Then, Trypan blue staining was performed on 1 well 24 hours after the exchange of a culture medium, 1 well 48 hours after the exchange of a culture medium, and the remaining 1 well 72 hours after the exchange of a culture medium, and the viable cell counts were counted. As a control, the viable cell counts were measured (untreated) by performing the culturing similarly to the above except that a culture medium was exchanged with a culture solution to which no shRNA was added.
(§2) Specifically, the viable cell counts were measured after culturing the cells similarly to Example 1 except that a 5 μM culture solution containing a control peptide, a peptide 1, or a peptide 2 was used instead of the culture solution (2 mL/well) of which the shRNA concentration was 2.5 μg/well. The viable cell counts were measured (untreated) by performing the culturing similarly to Example 1 using a culture solution containing no peptide 2, as a control.

The subject of series [2] is K562 strain. Briefly: Viable cell counts (Trypan blue staining), K562 strain. The format is cell-based. As to conditions: vs untreated. The procedure: as §1, §2
Series [3] has as its system KATO-III strain. Briefly: Viable cell counts (Trypan blue staining), KATO-III strain. The settings on record: shRNA 2.5 μg/well, vs untreated. Format: cell-based. The procedure: as §1
For series [4], the system named is OCUM-1 strain. Briefly: Viable cell counts (Trypan blue staining), OCUM-1 strain. Format: cell-based. The settings on record: shRNA 2.5 μg/well, vs untreated. As to the method: as §1
For the next series, the system named is LIX1L genes. Description: RT-PCR of LIX1L gene expression after shRNA treatment. Format: cell-based, human. The settings on record: HL-60, K562, KATO-III and OCUM-1 strains; shRNA 2.5 μg/well; after 72 hours. The procedure:
In the RT-PCR, first, RNA was extracted and purified from the collected cells using RNeasy Mini Kit (manufactured by QIAGEN). The concentration of total RNA was measured using a spectrophotometer. A reverse transcription reaction was performed using First Strand cDNA Synthesis Kit (manufactured by Roche Life Science) for RT-PCR (AMV), for synthesizing cDNA, in 20 μL of a reaction solution containing 1 μg of total RNA and a random primer for 10 minutes at 25° C., subsequently for 45 minutes at 42° C., and then for 2 minutes at 95° C., to deactivate reverse transcriptase. In all PCRs, TaqMan (registered trademark) polymerase (manufactured by Life Technologies Ltd.) was used. […] The signal intensity of a band of LIX1L in an ethidium bromide staining image was measured using densitometry and a relative value of the signal intensity was calculated. In addition, in all quantitative PCR reactions, SYBR (registered trademark) Green I was used. Quantitative determination was performed in 25 μL of a reaction solution containing the synthesized cDNA and a LIX1L primer using an ABI PRISM 7700 Sequence detector (manufactured by Perkin-Elmer/Applied Biosystems). […]

In series [5] the test system is RPMI8226 strain. Briefly: Viable cell counts (Trypan blue staining), RPMI8226 strain. The format is cell-based. As to conditions: 5 μM peptide, up to 72 hours, vs untreated. As to the method: as §1, with “added. […]” for “added.”
The subject of series [6] is HL-60 strain. Description: MTT assay, HL-60 strain. Format: cell-based. The settings on record: peptide 0 μM to 100 μM, 72 hours. The procedure: (§3) Specifically, first, cells plated in a 96-well microplate such that the density thereof became 5×10^3 cells/well were cultured for one night in a culture solution having the same composition as those in the reference examples. Thereafter, the culture solution was exchanged with 100 μL of a culture solution of which the concentration of peptides is 0 μM to 100 μM for culturing for 72 hours. After the culturing, an MTT-containing PBS solution was added to the culture solution, and the mixture was incubated for 4 hours. Then, formazan which was generated by putting 100 μL of isopropanol (containing 34 (v/v) % of hydrochloric acid) into each of the wells was dissolved. The absorbance of each of the wells of the microplate at 570 nm was measured using a microplate reader. As controls, culturing was performed in the same manner except that no peptide was added to the strains, an MTT assay was performed thereon, and the absorbance at 570 nm was measured (untreated).
(§4) In the method for measuring the viable cell counts, cells were cultured for 3 days similarly to Example 1 except that a 25 μM (10 μM for an HL-60 strain, a K562 strain, and a U937 strain) culture solution containing a control peptide or a peptide 1 was used, and the viable cell counts were measured. As a comparison, culturing was performed similarly to the above using a culture solution containing no peptide, and the viable cell counts were measured (untreated).
(§5) In addition, in the method for performing an MTT assay, cells were cultured for 72 hours similarly to Example 2 except that a peptide to be added to a strain was set to a control peptide or a peptide 1 at 25 μM (10 μM for an HL-60 strain, a K562 strain, and a U937 strain), an MTT assay was performed thereon, and the absorbance at 570 nm was measured. As a comparison, culturing was performed similarly to the above using a culture solution containing no peptide, and the MTT assay was performed thereon (untreated).
In general terms: Formazan colour is commonly taken as a measure of viable cells.

In series [7] the test system is K562 strain. Description: MTT assay, K562 strain. Format: cell-based. As to conditions: 72 hours. As to the method:
as §3
(§6) Specifically, the cells were cultured for 72 hours similarly to Example 2 except that a peptide to be added to a cell strain was set to peptide 1, 3, or 4, or a control peptide, an MTT assay was performed thereon, and the absorbance at 570 nm was measured.
as §4, §5
(§7) Specifically, the cells were cultured for 72 hours similarly to Example 2 except that a peptide to be added to a cell was set to a peptide 1, 2, 5, or 6, MTT assays were performed thereon, and the absorbance at 570 nm was measured. As a comparison, culturing was performed similarly to the above using a culture solution containing no peptide, and the MTT assay was performed thereon (untreated).
Specifically, the cells were cultured for 72 hours similarly to Example 2 except that peptides to be added to cell strains were set to peptides 7 to 14, MTT assays were performed thereon, and the absorbance at 570 nm was measured. As a comparison, culturing was performed similarly to the above using a culture solution containing no peptide, and the MTT assay was performed thereon (untreated).
Specifically, the cells were cultured for 72 hours similarly to Example 2 except that a peptide to be added to a cell strain was set to a peptide 15 or 16, an MTT assay was performed thereon, and the absorbance at 570 nm was measured. As a comparison, culturing was performed similarly to the above using a culture solution containing no peptide, and the MTT assay was performed thereon (untreated).

Series [8] has as its system RPMI8226 strain. Description: MTT assay, RPMI8226 strain. The format is cell-based. As to conditions: peptide 0 μM to 100 μM, 72 hours. As to the method: as §3, §6
The test system of series [9] is KATO-III strain. Description: MTT assay, KATO-III strain. As to conditions: peptide 0 μM to 100 μM, 72 hours. The format is cell-based. The procedure: as §3
Series [10] deals with OCUM-1 strain. Description: MTT assay, OCUM-1 strain. The settings on record: peptide 0 μM to 100 μM, 72 hours. Format: cell-based. As to the method:
as §3

In another series the test system is 293 FLG. Description: MTT assay, 293 FLG cells. Format: cell-based. The settings on record: 72 hours, peptide concentrations up to 250 μM. The procedure: as §3, with “Thereafter, the culture solution was exchanged with 100 μL of a culture solution of which the concentration of peptides is 0 μM to 100 μM for culturing for 72 hours.” left out
as §4, §5, §7
(§8) Specifically, the cells were cultured for 72 hours similarly to Example 2 except that peptides to be added to cell strains were set to peptides 7 to 14, MTT assays were performed thereon, and the absorbance at 570 nm was measured. […]
(§9) Specifically, the cells were cultured for 72 hours similarly to Example 2 except that a peptide to be added to a cell strain was set to a peptide 15 or 16, an MTT assay was performed thereon, and the absorbance at 570 nm was measured. […]

The subject of the next series is 293 FLG/LIX1L. Briefly: MTT assay, 293 FLG/LIX1L cells. The settings on record: 72 hours, peptide concentrations up to 250 μM. Format: cell-based. As to the method:
as §3, with “Thereafter, the culture solution was exchanged with 100 μL of a culture solution of which the concentration of peptides is 0 μM to 100 μM for culturing for 72 hours.” left out
as §4, §5, §7, §8, §9

A further series deals with MKN45 strain. Briefly: MTT assay, MKN45 strain. The format is cell-based. The settings on record: 72 hours, peptide concentrations up to 250 μM. As to the method: as §3, with “Thereafter, the culture solution was exchanged with 100 μL of a culture solution of which the concentration of peptides is 0 μM to 100 μM for culturing for 72 hours.” left out
as §4, §5, §7, §8, §9

For a further series, the system named is NUGC-4 strain. Briefly: MTT assay, NUGC-4 strain. Format: cell-based. The settings on record: 72 hours, peptide concentrations up to 250 μM. As to the method: as §3, with “Thereafter, the culture solution was exchanged with 100 μL of a culture solution of which the concentration of peptides is 0 μM to 100 μM for culturing for 72 hours.” left out
as §4, §5, §7, §8, §9

[11] abbreviates: shRNA 2.5 μg/well, after 48 hours and 72 hours.
[12] abbreviates: shRNA 2.5 μg/well, until 24 hours.

For “LIX1L shRNA #2: shRNA with respect to LIX1L genes; base sequence shown in FIG. 5B (DNA GAGTCCCGTGGTGCTGACTTAATTCAAGAGATTAAGTCAGCACCACGGGACTCTTTTTT)”, the viable cell counts entry is listed as “decreased more clearly than that of the untreated cells” in the series on HL-60 strain [1] (setting [11]); “no particular difference” in the series with HL-60 strain [1] (setting [12]); “decreased more clearly than that of the untreated cells” with K562 strain [2] (setting [11]); “no particular difference” in the series with K562 strain [2] (setting [12]); “decreased more clearly than that of the untreated cells” with KATO-III strain [3] (after 48 hours and 72 hours); “no particular difference” with KATO-III strain [3] (until 24 hours). Further, the viable cell counts entry in the series with OCUM-1 strain [4] (after 48 hours and 72 hours) is “decreased more clearly than that of the untreated cells”; in the series with OCUM-1 strain [4] (until 24 hours), “no particular difference”. Also, the “expression of LIX1L genes (RT-PCR)” value in the series with LIX1L genes was “hardly observed”.

As for “YGRKKRRQRRR-X-CYVTLPGGSC-NH2 (YGRKKRRQRRRXCYVTLPGGSC; ε-aminocaproic acid linker; C-terminal amide; peptide 2)”, the viable cell counts result in the series on HL-60 strain [1] (5 μM peptide, after 72 hours) is given as “the same as those in an untreated case”; in the series with K562 strain [2] (5 μM peptide, after 72 hours), “the same as those in an untreated case”; in the series with RPMI8226 strain [5], “the same as those in an untreated case”. The “absorbance at 570 nm (MTT assay), influence on cell proliferation” value with HL-60 strain [6], in the series on K562 strain [7] (peptide 0 μM to 100 μM), in the series on RPMI8226 strain [8], with KATO-III strain [9] and in the series with OCUM-1 strain [10] was “no particular change in the absorbance at 570 nm” throughout. The “cell proliferation (MTT assay, absorbance at 570 nm)” value in the series with K562 strain [7] (peptide concentrations up to 250 μM), with 293 FLG, with 293 FLG/LIX1L, in the series with MKN45 strain and in the series with NUGC-4 strain was “not inhibited” in each case.

Take “LIX1L shRNA #1: shRNA with respect to LIX1L genes; base sequence shown in FIG. 5A (DNA GAGGAGGTGTTGGCTCATTATTTTCAAGAGAAATAATGAGCCAACACCTCCTCTTTTTT)”: the viable cell counts entry with HL-60 strain [1] (setting [11]) is given as “decreased more clearly than that of the untreated cells”; in the series on HL-60 strain [1] (setting [12]), “no particular difference”; with K562 strain [2] (setting [11]), “decreased more clearly than that of the untreated cells”; with K562 strain [2] (setting [12]) it was “no particular difference”; with KATO-III strain [3] (after 48 hours and 72 hours), “decreased more clearly than that of the untreated cells”; in the series with KATO-III strain [3] (until 24 hours), “no particular difference”. For the same substance, the viable cell counts result in the series with OCUM-1 strain [4] (after 48 hours and 72 hours) is “decreased more clearly than that of the untreated cells”; in the series on OCUM-1 strain [4] (until 24 hours) it was “no particular difference”. Further, in the series on LIX1L genes, the “expression of LIX1L genes (RT-PCR)” value is on record as “hardly observed”.
